Where “and” joins values, the source holds several entries; their conditions need not be identical. Equal entries are not always repeated. Toxic doses and inconclusive results are not listed.

For this test, the system named is BDF1 mice, B16 melanoma ip, median survival T/C. As to the kind of experiment: NCI In Vivo Anticancer Drug Screen. Data for tumor model B16 Melanoma (intraperitoneal) in B6D2F1 (BDF1) mice. Conditions: endpoint: median survival time, higher = longer survival. The gist of the method:
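Survival or tumor size is measured after treatment of tumor-bearing mice and normalised to the vehicle-treated control group.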

The mark [1] stands for this setting: dose: 1.56 mg/kg/injection, schedule: Q01DX009 (ip), vehicle: Klucel (hydroxypropylcellulose) (HPC).
Where [2] appears, read: dose: 3.12 mg/kg/injection, schedule: Q01DX009 (ip), vehicle: Klucel (hydroxypropylcellulose) (HPC).
Setting [3] is: dose: 6.25 mg/kg/injection, schedule: Q01DX009 (ip), vehicle: Klucel (hydroxypropylcellulose) (HPC).
Where [4] appears, read: dose: 12.5 mg/kg/injection, schedule: Q01DX009 (ip), vehicle: Klucel (hydroxypropylcellulose) (HPC).
[5] abbreviates: dose: 100.0 mg/kg/injection, schedule: Q01DX009 (ip), vehicle: Klucel (hydroxypropylcellulose) (HPC).
[6] abbreviates: dose: 50.0 mg/kg/injection, schedule: Q01DX009 (ip), vehicle: Klucel (hydroxypropylcellulose) (HPC).
Setting [7] is: dose: 200.0 mg/kg/injection, schedule: Q01DX009 (ip), vehicle: Klucel (hydroxypropylcellulose) (HPC).
The mark [8] stands for this setting: dose: 25.0 mg/kg/injection, schedule: Q01DX009 (ip), vehicle: saline with Tween-80.
Setting [9] is: dose: 50.0 mg/kg/injection, schedule: Q01DX009 (ip), vehicle: saline with Tween-80.
Where [10] appears, read: dose: 100.0 mg/kg/injection, schedule: Q01DX009 (ip), vehicle: saline with Tween-80.
Where [11] appears, read: dose: 200.0 mg/kg/injection, schedule: Q01DX009 (ip), vehicle: saline with Tween-80.
Setting [12] is: dose: 25.0 mg/kg/injection, schedule: Q01DX009 (ip), vehicle: Klucel (hydroxypropylcellulose) (HPC).
The mark [13] stands for this setting: dose: 12.5 mg/kg/injection, schedule: Q01DX009 (ip), vehicle: saline with Tween-80.
[14] abbreviates: dose: 100.0 mg/kg/injection, schedule: Q04DX003 (ip), vehicle: Klucel (hydroxypropylcellulose) (HPC).

For `OC(CCN1CCCCC1)(c1ccccc1)C1CC2C=CC1C2` (centres undefined), the T/C by setting is: (dose: 0.19 mg/kg/injection, schedule: Q01DX009 (ip), vehicle: Klucel (hydroxypropylcellulose) (HPC)) 96 % of control; (dose: 0.39 mg/kg/injection, schedule: Q01DX009 (ip), vehicle: Klucel (hydroxypropylcellulose) (HPC)) 100 % of control; (dose: 0.78 mg/kg/injection, schedule: Q01DX009 (ip), vehicle: Klucel (hydroxypropylcellulose) (HPC)) 103 % of control; under setting [1], 100 % of control; under setting [2], 115 % of control; under setting [3], 94 % of control. In addition, the T/C was 92 % of control and 96 % of control under setting [4]; 89 % of control under setting [5].
Take `N#CC(Br)C(N)=O` (centres undefined): the T/C is, setting by setting: (dose: 2.5 mg/kg/injection, schedule: Q01DX009 (ip), vehicle: saline) 93 % of control; (dose: 5.0 mg/kg/injection, schedule: Q01DX009 (ip), vehicle: saline) 94 % of control.
As to `C=C(C)C(=O)OCC1CO1` (centres undefined), the T/C under setting [6] is 102 % of control, the T/C under setting [5] was 100 % of control and the T/C under setting [7] was 109 % of control.
Turning to `CC1=CC(=O)c2ccccc2C1=O`, under setting [8], the T/C was 108 % of control and 118 % of control.
On to `COC(=O)C(Br)C1CCCCC1` (centres undefined), for which the T/C under setting [9] was 100 % of control, the T/C under setting [10] was 103 % of control and the T/C under setting [11] was 99 % of control.
As to `CC1OC(Oc2c(-c3cc(O)c(O)c(O)c3)oc3cc(O)cc(O)c3c2=O)C(O)C(O)C1O` (centres undefined), the T/C is 112 % of control under setting [10]; 113 % of control under setting [11]; 90 % of control (dose: 400.0 mg/kg/injection, schedule: Q01DX009 (ip), vehicle: saline with Tween-80).
Take `CCCCCCCCCCCCCCCCCN`: the T/C under setting [3] was 103 % of control, the T/C under setting [4] was 100 % of control and the T/C under setting [12] was 93 % of control.
For `O=C1OC(=O)C2C1C1C3C=CC3C1C21C=C1` (centres undefined), the T/C by setting is: under setting [5], 87 % of control; under setting [7], 87 % of control.
`CCCC(=O)c1ccc(OC)c(OC)c1`: the T/C under setting [6] is 86 % of control, the T/C under setting [5] is 93 % of control and the T/C under setting [7] is 96 % of control.
As to `COc1cc(C(=O)O)c2c(c1C)OC(=O)c1c(C)cc(O)c(C=O)c1O2`, the T/C is, setting by setting: (dose: 1.39 mg/kg/injection, schedule: Q01DX009 (ip), vehicle: saline with Tween-80) 97 % of control; (dose: 2.78 mg/kg/injection, schedule: Q01DX009 (ip), vehicle: saline with Tween-80) 99 % of control; (dose: 5.56 mg/kg/injection, schedule: Q01DX009 (ip), vehicle: saline with Tween-80) 110 % of control; under setting [3], 111 % of control; (dose: 11.0 mg/kg/injection, schedule: Q01DX009 (ip), vehicle: saline with Tween-80) 158 % of control; under setting [4], 117 % of control. For the same molecule, the T/C by setting is: under setting [13], 150 % of control; under setting [12], 122 % of control; under setting [8], 160 % of control; (dose: 25.0 mg/kg/injection, schedule: Q04DX003 (ip), vehicle: saline with Tween-80) 113 % of control; (dose: 50.0 mg/kg/injection, schedule: Q04DX003 (ip), vehicle: saline with Tween-80) 105 % of control.
Take `Cc1ccc(S(=O)(=O)N(Cc2cccc(CN(S(=O)(=O)c3ccc(C)cc3)S(=O)(=O)c3ccc(C)cc3)c2)S(=O)(=O)c2ccc(C)cc2)cc1`: under setting [14], the T/C is 87 % of control.
In the case of `CCCCCCCCC(=O)NCCOC`, the T/C runs as follows: under setting [6], 104 % of control; under setting [5], 101 % of control; under setting [7], 101 % of control.
As for `C#CC(OC(=O)NC1CCCCC1)(c1ccccc1)c1ccccc1`, the T/C is 105 % of control (dose: 6.25 mg/kg/injection, schedule: Q01DX009 (ip), vehicle: saline with Tween-80); 100 % of control under setting [13]; 113 % of control under setting [8].
In the case of `CN1NCc2cncnc21`, the T/C under setting [9] is 107 % of control, the T/C under setting [10] is 101 % of control and the T/C under setting [11] was 97 % of control.
As for `C/C(=N/N=C(N)N)c1ccc(NC(=O)Nc2ccc(/C(C)=N/N=C(N)N)cc2)cc1`, the T/C is, setting by setting: under setting [12], 99 % of control; under setting [6], 121 % of control; under setting [7], 120 % of control.
In the case of `COc1cccc2c1C(=O)c1c(O)c3c(c(O)c1C2=O)CC(O)(C(C)=O)CC3OC1CC(N)C(O)C(C)O1` (centres undefined), the T/C by setting is: (dose: 2.5 mg/kg/injection, schedule: Q01DX007 (ip), vehicle: water) 154 % of control; (dose: 2.5 mg/kg/injection, schedule: Q01DX009 (ip), vehicle: water) 163 % of control; (dose: 5.0 mg/kg/injection, schedule: Q01DX007 (ip), vehicle: water) 154 % of control; (dose: 5.0 mg/kg/injection, schedule: Q01DX009 (ip), vehicle: water) 190 % of control; (dose: 5.8 mg/kg/injection, schedule: Q01DX009 (ip), vehicle: saline) 258 % of control; (dose: 10.0 mg/kg/injection, schedule: Q01DX007 (ip), vehicle: water) 163 % of control. Besides, the T/C (dose: 10.0 mg/kg/injection, schedule: Q01DX009 (ip), vehicle: water) was 218 % of control; the T/C (dose: 11.7 mg/kg/injection, schedule: Q01DX009 (ip), vehicle: saline) is 122 % of control and 267 % of control; the T/C (dose: 20.0 mg/kg/injection, schedule: Q01DX007 (ip), vehicle: water) is 339 % of control; the T/C (dose: 20.0 mg/kg/injection, schedule: Q01DX009 (ip), vehicle: water) was 231 % of control; the T/C (dose: 23.4 mg/kg/injection, schedule: Q01DX009 (ip), vehicle: saline) is 116 % of control and 267 % of control; the T/C (dose: 23.4 mg/kg/injection, schedule: Q04DX003 (ip), vehicle: saline) was 212 % of control. In addition, the T/C (dose: 46.8 mg/kg/injection, schedule: Q04DX003 (ip), vehicle: saline) is 275 % of control and the T/C (dose: 93.6 mg/kg/injection, schedule: Q04DX003 (ip), vehicle: saline) was 275 % of control.
With `CC(=O)OCc1c(O)c2c(c(O)c1COC(C)=O)C(=O)C=CC2=O`, the T/C was 94 % of control under setting [3], 91 % of control under setting [4] and 89 % of control under setting [12].
Turning to `COc1cccc(C(O)c2ccncc2C)c1OC` (centres undefined), the T/C is 98 % of control (dose: 25.0 mg/kg/injection, schedule: Q01DX009 (ip), vehicle: water); 98 % of control (dose: 50.0 mg/kg/injection, schedule: Q01DX009 (ip), vehicle: water); 101 % of control (dose: 100.0 mg/kg/injection, schedule: Q01DX009 (ip), vehicle: water); 104 % of control (dose: 200.0 mg/kg/injection, schedule: Q01DX009 (ip), vehicle: water).
Turning to `C1CCC2[N-]CC3CCCCC3[N-]CC3CCCCC3[N-]CC3CCCCC3[N-]CC2C1.[Cu]` (centres undefined), the T/C is 123 % of control under setting [1] and 156 % of control under setting [2].
Turning to `CC(C)(C)OC(=O)NC(N)=NCCCC(NC(=O)OC(C)(C)C)C(=O)O` (centres undefined), the T/C by setting is: under setting [9], 101 % of control; under setting [10], 88 % of control; under setting [11], 87 % of control.
On to `CS(=O)(=O)OCC1CCCCO1` (centres undefined), for which the T/C was 92 % of control and 100 % of control under setting [14]; 100 % of control (dose: 200.0 mg/kg/injection, schedule: Q04DX003 (ip), vehicle: Klucel (hydroxypropylcellulose) (HPC)); 104 % of control and 108 % of control (dose: 400.0 mg/kg/injection, schedule: Q04DX003 (ip), vehicle: Klucel (hydroxypropylcellulose) (HPC)).
Turning to `COc1cc2ccc(CC(=O)NCc3ccccc3)cc2cc1OC`, the T/C reads like this: under setting [10], 122 % of control; (dose: 135.0 mg/kg/injection, schedule: Q01DX009 (ip), vehicle: Klucel (hydroxypropylcellulose) (HPC)) 123 % of control; under setting [7], 110 % of control.
Consider `CCN(CC)CCNC1CCCCC1`, for which the T/C (dose: 25.0 mg/kg/injection, schedule: Q01DX009 (ip), vehicle: saline) is 102 % of control; the T/C (dose: 50.0 mg/kg/injection, schedule: Q01DX009 (ip), vehicle: saline) was 112 % of control; the T/C (dose: 100.0 mg/kg/injection, schedule: Q01DX009 (ip), vehicle: saline) is 98 % of control.
`NC1(C(=O)O)CSSC1`: the T/C is 95 % of control under setting [12] and 100 % of control under setting [6].
